Patent US20250092056A1, “URACIL DERIVATIVES HAVING VIRUS REPLICATION INHIBITORY ACTIVITY AND PHARMACEUTICAL COMPOSITION COMPRISING THE SAME” (Shionogi & Co., Ltd., priority 2022, published 2025)

Legend:
SARS-CoV-2 = assay: Cytopathic effect (CPE) suppression effect confirmation test using HEK293T/ACE2-TMPRSS2 cells; assay type: cell-based; conditions: Severe acute respiratory syndrome coronavirus 2, HEK-293T; 50% SARS-CoV-2 infected cell death inhibitory concentration; HEK293T/ACE2-TMPRSS2 cells; read-out: EC50
[1] = target: Recombinant SARS-CoV-2 3CL Protease (Severe acute respiratory syndrome coronavirus 2 (2019-nCoV) (SARS-CoV-2), UniProt P0DTD1); assay: biochemical; assay type: biochemical; conditions: 50% SARS-CoV-2 3CL protease inhibitory concentration; read-out: IC50

SMILES | EC50 (SARS-CoV-2) [nM] | IC50 [1] [nM]
N#CCn1c(N2CC(O)(c3ncccn3)C2)c(-c2ccc(F)c(Cl)c2)c(=O)n(-c2cncc(OCF)c2)c1=O [Compound I-346] | < 100 | < 10
N#CCn1c(N2CC(F)(C3CC3)C2)c(-c2ccc(F)c(Cl)c2)c(=O)n(-c2cncc(OCF)c2)c1=O [Compound I-347] | < 100 | < 10
N#CCn1c(C2(O)CCC2)c(-c2ccc(F)c(Cl)c2)c(=O)n(-c2cncc(Cl)c2)c1=O [Compound I-348] | < 100 | 10 to 100
N#CCn1c(C2=CCC2)c(-c2ccc(F)c(Cl)c2)c(=O)n(-c2cncc(Cl)c2)c1=O [Compound I-349] | < 100 | 10 to 100
N#CCn1c(CCC(F)F)c(-c2ccc(F)c(Cl)c2)c(=O)n(-c2cncc(Cl)c2)c1=O [Compound I-350] | < 100 | < 10
N#CCn1c(N2CC(OC(F)(F)F)C2)c(-c2ccc(F)c(Cl)c2)c(=O)n(-c2cnc3cc(F)ccn23)c1=O [Compound I-351] | < 100 | < 10
N#CCn1c(N2CC(C(F)(F)F)C2)c(-c2ccc(F)c(Cl)c2)c(=O)n(-c2cncc(OCF)c2)c1=O [Compound I-352] | < 100 | < 10
N#CCn1c(N2CC3(C2)CC(F)(F)C3)c(-c2ccc(F)c(Cl)c2)c(=O)n(-c2cncc(OCF)n2)c1=O [Compound I-353] | < 100 | < 10
CC1(O)CN(c2c(-c3ccc(F)c(Cl)c3)c(=O)n(-c3cncc(OC(F)F)n3)c(=O)n2CC#N)C1 [Compound I-354] | < 100 | < 10
CC1(O)CN(c2c(-c3ccc(F)c(Cl)c3)c(=O)n(-c3cncc(OCF)n3)c(=O)n2CC#N)C1 [Compound I-355] | < 100 | < 10
CC(C)(F)CCc1c(-c2ccc(F)c(Cl)c2)c(=O)n(-c2cncc(Cl)c2)c(=O)n1CC#N [Compound I-357] | < 100 | < 10
N#CCn1c(N2CC(OC(F)F)C2)c(-c2ccc(F)c(Cl)c2)c(=O)n(-c2cncc(C(F)F)n2)c1=O [Compound I-358] | < 100 | < 10
N#CCn1c(-c2nnc(C3CC3)s2)c(-c2ccc(F)c(Cl)c2)c(=O)n(-c2cncc(Cl)c2)c1=O [Compound I-359] | < 100 | < 10
Cc1coc(-c2c(-c3ccc(F)c(Cl)c3)c(=O)n(-c3cncc(Cl)c3)c(=O)n2CC#N)n1 [Compound I-360] | < 100 | < 10
N#CCn1c(N2CC3(C2)CC(F)(F)C3)c(-c2ccc(F)c(Cl)c2)c(=O)n(-c2cncc(Br)c2)c1=O [Compound I-361] | < 100 | < 10
N#CCn1c(N2CC3(C=C(F)C3)C2)c(-c2ccc(F)c(Cl)c2)c(=O)n(-c2cncc(Cl)c2)c1=O [Compound I-362] | < 100 | < 10
N#CCn1c(N2CC3(C2)CC(F)(F)C3)c(-c2ccc(F)c(Cl)c2)c(=O)n(-c2cncc(I)c2)c1=O [Compound I-363] | < 100 | < 10
N#CCn1c(N2CC3(CCOC3)C2)c(CC2CC(F)(F)C2)c(=O)n(-c2cncc(Cl)c2)c1=O [Compound I-364] | 100 to 1000 | > 100
N#CCn1c(N2CC3(CCOC3)C2)c(CCCC(F)(F)F)c(=O)n(-c2cncc(Cl)c2)c1=O [Compound I-365] | 100 to 1000 | 10 to 100
N#CCn1c(N2CC3(C2)CC(F)(F)C3)c(-c2cc(F)c(F)c(C#N)c2)c(=O)n(-c2cncc(Cl)c2)c1=O [Compound I-366] | < 100 | < 10
N#CCn1c(N2CC(O)(C(F)(F)F)C2)c(-c2cc(F)c(F)c(C#N)c2)c(=O)n(-c2cncc(Cl)c2)c1=O [Compound I-367] | < 100 | < 10
N#CCn1c(N2CC(C(F)(F)F)C2)c(-c2cc(F)c(F)c(C#N)c2)c(=O)n(-c2cncc(Cl)c2)c1=O [Compound I-368] | < 100 | < 10
N#CCn1c(N2CC(OC(F)F)C2)c(-c2cc(F)c(F)c(C#N)c2)c(=O)n(-c2cncc(Cl)c2)c1=O [Compound I-369] | < 100 | < 10
N#CCn1c(N2C[C@@H]3C[C@H]2CO3)c(-c2cc(F)c(F)c(C#N)c2)c(=O)n(-c2cncc(Cl)c2)c1=O [Compound I-370] | < 100 | < 10

SMILES | EC50 (SARS-CoV-2) [nM] | IC50 [1] [nM]
N#CCn1c(C2CC(O)C2)c(-c2ccc(F)c(Cl)c2)c(=O)n(-c2cncc(Cl)c2)c1=O (stereo not drawn) [Compound I-371] | < 100 | < 10
N#CCn1c(N2CC3(C2)CC(F)(F)C3)c(-c2ccc(F)c(C#N)c2)c(=O)n(-c2cncc(Cl)c2)c1=O [Compound I-372] | < 100 | < 10
N#CCn1c(N2CC(O)(C(F)(F)F)C2)c(-c2ccc(F)c(C#N)c2)c(=O)n(-c2cncc(Cl)c2)c1=O [Compound I-373] | < 100 | < 10
N#CCn1c(N2CC(C(F)(F)F)C2)c(-c2ccc(F)c(C#N)c2)c(=O)n(-c2cncc(Cl)c2)c1=O [Compound I-374] | < 100 | < 10
N#CCn1c(N2CC(OC(F)F)C2)c(-c2ccc(F)c(C#N)c2)c(=O)n(-c2cncc(Cl)c2)c1=O [Compound I-375] | < 100 | < 10
N#CCn1c(N2C[C@@H]3C[C@H]2CO3)c(-c2ccc(F)c(C#N)c2)c(=O)n(-c2cncc(Cl)c2)c1=O [Compound I-376] | < 100 | < 10
N#CCn1c(N2CC(O)(c3ncccn3)C2)c(-c2ccc(F)c(Cl)c2)c(=O)n(-c2cncc(OCF)n2)c1=O [Compound I-377] | < 100 | < 10
N#CCn1c(N2CC(O)(c3ncccn3)C2)c(-c2ccc(F)c(Cl)c2)c(=O)n(-c2cncc(OC(F)F)n2)c1=O [Compound I-378] | < 100 | < 10
COc1ccc(-c2c(-c3ccc(F)c(Cl)c3)c(=O)n(-c3cncc(Cl)c3)c(=O)n2CC#N)cn1 [Compound I-379] | < 100 | < 10
N#CCn1c(-c2ccc(CO)nc2)c(-c2ccc(F)c(Cl)c2)c(=O)n(-c2cncc(Cl)c2)c1=O [Compound I-380] | < 100 | < 10
N#CCn1c(N2CC(O)(C3CC3)C2)c(-c2ccc(F)c(Cl)c2)c(=O)n(-c2cncc(C(F)F)n2)c1=O [Compound I-381] | < 100 | < 10
CC1(O)CN(c2c(-c3ccc(F)c(Cl)c3)c(=O)n(-c3cncc(C(F)F)n3)c(=O)n2CC#N)C1 [Compound I-382] | < 100 | < 10
N#CCn1c(N2CC(O)(C(F)(F)F)C2)c(-c2ccc(F)c(Cl)c2)c(=O)n(-c2cncc(C(F)F)n2)c1=O [Compound I-383] | < 100 | < 10
N#CCn1c(-c2ccc(C#N)nc2)c(-c2ccc(F)c(Cl)c2)c(=O)n(-c2cncc(Cl)c2)c1=O [Compound I-384] | < 100 | < 10
N#CCn1c(-c2ccc(F)nc2)c(-c2ccc(F)c(Cl)c2)c(=O)n(-c2cncc(Cl)c2)c1=O [Compound I-385] | < 100 | < 10
N#CCn1c(-c2ccc(C(F)F)nc2)c(-c2ccc(F)c(Cl)c2)c(=O)n(-c2cncc(Cl)c2)c1=O [Compound I-387] | < 100 | < 10
N#CCn1c(C2CC2)c(-c2ccc(F)c(Cl)c2)c(=O)n(-c2cncc(Cl)c2)c1=O [Compound I-388] | < 100 | < 10
COCC1CN(c2c(-c3ccc(F)c(Cl)c3)c(=O)n(-c3cncc(C(F)F)n3)c(=O)n2CC#N)C1 [Compound I-389] | < 100 | < 10
N#CCn1c(C2CC(F)(C3CC3)C2)c(-c2ccc(F)c(Cl)c2)c(=O)n(-c2cncc(C(F)F)n2)c1=O (stereo not drawn) [Compound I-390] | < 100 | < 10
N#CCn1c(CCC2CC(F)(F)C2)c(-c2ccc(F)c(Cl)c2)c(=O)n(-c2cncc(Cl)c2)c1=O [Compound I-391] | < 100 | < 10
N#CCn1c(C2CC(F)(F)C2)c(-c2ccc(F)c(Cl)c2)c(=O)n(-c2cncc(Cl)c2)c1=O [Compound I-394] | < 100 | < 10
N#CCn1c(C2CCC2)c(-c2ccc(F)c(Cl)c2)c(=O)n(-c2cncc(Cl)c2)c1=O [Compound I-395] | < 100 | < 10
COC1CN(c2c(-c3ccc(F)c(Cl)c3)c(=O)n(-c3cncc(C(F)F)n3)c(=O)n2CC#N)C1 [Compound I-396] | < 100 | < 10
N#CCn1c(N2CCC(C(F)F)CC2)c(-c2ccc(F)c(F)c2)c(=O)n(-c2cncc(Cl)c2)c1=O [Compound I-397] | < 100 | < 10
